Measurements published in patent US10351575B2, “Bicyclic urea, thiourea, guanidine and cyanoguanidine compounds useful for the treatment of pain” (Array BioPharma Inc., priority 2012, dated 2019).

target: His-tagged recombinant human TrkA (Homo sapiens (Human), UniProt P04629); assay: TrkA LanthaScreen Eu Kinase Binding Assay; details: averaged IC50; TR-FRET binding, 60 min, 22° C.; read-out: TrkA Enzyme IC50
Method in brief: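 Three-fold compound dilutions (2% DMSO final) were incubated 60 min at 22° C. with 5 nM His-TrkA cytoplasmic domain, tracer 236 (4 nM), biotinylated anti-His (2 nM) and europium streptavidin (2 nM) in MOPS pH 7.5 buffer. Emission ratio 665/615 gave percent of control; four-parameter fit yielded IC50.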

Chain of His-tagged recombinant human TrkA (P04629 440-796): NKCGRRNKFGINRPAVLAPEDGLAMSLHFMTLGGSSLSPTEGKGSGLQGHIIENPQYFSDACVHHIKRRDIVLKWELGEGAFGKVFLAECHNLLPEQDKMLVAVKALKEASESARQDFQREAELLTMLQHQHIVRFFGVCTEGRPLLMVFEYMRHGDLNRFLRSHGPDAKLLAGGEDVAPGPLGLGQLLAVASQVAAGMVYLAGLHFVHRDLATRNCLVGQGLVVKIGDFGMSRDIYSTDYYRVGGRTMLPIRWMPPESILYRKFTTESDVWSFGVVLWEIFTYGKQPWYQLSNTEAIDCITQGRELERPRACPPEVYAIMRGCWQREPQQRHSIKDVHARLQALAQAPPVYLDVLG

Row | IC50 | SMILES
1 | < 0.1 µM | Cc1ncc(-c2nn(-c3ccccc3)c(NC(=O)N[C@@H]3c4cc(F)c(F)cc4C(C)(C)C[C@H]3O)c2C)cn1 [Example 84, 1-((1,2-trans)-6,7-difluoro-2-hydroxy-4,4-dimethyl-1,2,3,4-tetrahydronaphthalen-1-yl)-3-(4-methyl-3-(2-methylpyrimidin-5-yl)-1-phenyl-1H-pyrazol-5-yl)urea]
2 | < 0.1 µM | CNC(=O)c1nn(-c2ccccc2)c(NC(=O)N[C@@H]2c3ccccc3C(C)(C)[C@@H](OC)[C@H]2O)c1C [Example 85, 5-(3-((r-1,t-2,t-3)-2-hydroxy-3-methoxy-4,4-dimethyl-1,2,3,4-tetrahydronaphthalen-1-yl)ureido)-N,4-dimethyl-1-phenyl-1H-pyrazole-3-carboxamide]
3 | < 0.1 µM | CO[C@H]1[C@@H](O)[C@H](NC(=O)Nc2c(C)c(-c3cnn(C)c3)nn2-c2ccccc2)c2ccccc2C1(C)C [Example 86, 1-(1′,4-dimethyl-1-phenyl-1H,1′H-[3,4′-bipyrazol]-5-yl)-3-((r-1,t-2,t-3)-2-hydroxy-3-methoxy-4,4-dimethyl-1,2,3,4-tetrahydronaphthalen-1-yl)urea]
4 | < 0.1 µM | CO[C@H]1[C@@H](O)[C@H](NC(=O)Nc2c(C)c(OCC3CCN(C)CC3)nn2-c2ccccc2)c2ccccc2C1(C)C [Example 87, 1-((r-1,t-2,t-3)-2-hydroxy-3-methoxy-4,4-dimethyl-1,2,3,4-tetrahydronaphthalen-1-yl)-3-(4-methyl-3-((1-methylpiperidin-4-yl)methoxy)-1-phenyl-1H-pyrazol-5-yl)urea]
5 | < 0.1 µM | CNC(=O)c1nn(-c2ccccc2)c(NC(=O)N[C@@H]2c3ccc(F)cc3C(C)(C)C[C@H]2O)c1C [Example 88, 5-(3-((1,2-trans)-6-fluoro-2-hydroxy-4,4-dimethyl-1,2,3,4-tetrahydronaphthalen-1-yl)ureido)-N,4-dimethyl-1-phenyl-1H-pyrazole-3-carboxamide]
6 | < 0.1 µM | Cc1c(-c2cnn(C)c2)nn(-c2ccccc2)c1NC(=O)N[C@@H]1c2ccc(F)cc2C(C)(C)C[C@H]1O [Example 89, 1-(1′,4-dimethyl-1-phenyl-1H,1′H-[3,4′-bipyrazol]-5-yl)-3-((1,2-trans)-6-fluoro-2-hydroxy-4,4-dimethyl-1,2,3,4-tetrahydronaphthalen-1-yl)urea]
7 | < 0.1 µM | Cc1c(-c2ccc(=O)n(C)c2)nn(-c2ccccc2)c1NC(=O)N[C@@H]1c2ccc(F)cc2C(C)(C)C[C@H]1O [Example 90]
8 | < 0.1 µM | CNC(=O)c1nn(-c2ccccc2)c(NC(=O)N[C@@H]2c3cc(F)ccc3C(C)(C)C[C@H]2O)c1C [Example 91, 5-(3-((1,2-trans)-7-fluoro-2-hydroxy-4,4-dimethyl-1,2,3,4-tetrahydronaphthalen-1-yl)ureido)-N,4-dimethyl-1-phenyl-1H-pyrazole-3-carboxamide]
9 | < 0.1 µM | Cc1c(-c2cnn(C)c2)nn(-c2ccccc2)c1NC(=O)N[C@@H]1c2cc(F)ccc2C(C)(C)C[C@H]1O [Example 92, 1-(1′,4-dimethyl-1-phenyl-1H,1′H-[3,4′-bipyrazol]-5-yl)-3-((1,2-trans)-7-fluoro-2-hydroxy-4,4-dimethyl-1,2,3,4-tetrahydronaphthalen-1-yl)urea]
10 | < 0.1 µM | Cc1c(-c2ccc(=O)n(C)c2)nn(-c2ccccc2)c1NC(=O)N[C@@H]1c2cc(F)ccc2C(C)(C)C[C@H]1O [Example 93, 1-((1,2-trans)-7-fluoro-2-hydroxy-4,4-dimethyl-1,2,3,4-tetrahydronaphthalen-1-yl)-3-(4-methyl-3-(1-methyl-6-oxo-1,6-dihydropyridin-3-yl)-1-phenyl-1H-pyrazol-5-yl)urea]
11 | < 0.1 µM | COCc1ccc2c(c1)C(NC(=O)Nc1c(C)c(=O)[nH]n1-c1ccccc1)CN(CC(F)(F)F)C2C (centres unmarked) [Example 96, 1-(6-(methoxymethyl)-1-methyl-2-(2,2,2-trifluoroethyl)-1,2,3,4-tetrahydroisoquinolin-4-yl)-3-(4-methyl-5-oxo-2-phenyl-2,5-dihydro-1H-pyrazol-3-yl)urea]
12 | < 0.1 µM | Cc1nn(-c2ccccc2)c(NC(=O)N[C@@H]2c3cc(CO)ccc3C(C)(C)C[C@H]2O)c1C [Example 100]
13 | < 0.1 µM | Cc1c(-c2cnn(C)c2)nn(-c2ccccc2)c1NC(=O)N[C@H]1CCCc2cc(F)ccc21 [Example 103, (S)-1-(1′,4-dimethyl-1-phenyl-1H,1′H-[3,4′-bipyrazol]-5-yl)-3-(6-fluoro-1,2,3,4-tetrahydronaphthalen-1-yl)urea]
14 | < 0.1 µM | COCc1ccc2c(c1)C(NC(=O)Nc1c(C)c(-c3cnn(C)c3)nn1-c1ccccc1)CN(CC(F)(F)F)C2C (centres unmarked) [Example 109, 1-(1′,4-dimethyl-1-phenyl-1H,1′H-[3,4′-bipyrazol]-5-yl)-3-(6-(methoxymethyl)-1-methyl-2-(2,2,2-trifluoroethyl)-1,2,3,4-tetrahydroisoquinolin-4-yl)urea]
15 | < 0.1 µM | COCc1ccc2c(c1)C(NC(=O)Nc1c(C)c(C(N)=O)nn1-c1ccccc1)CN(CC(F)(F)F)C2C (centres unmarked) [Example 110, 5-(3-(6-(methoxymethyl)-1-methyl-2-(2,2,2-trifluoroethyl)-1,2,3,4-tetrahydroisoquinolin-4-yl)ureido)-4-methyl-1-phenyl-1H-pyrazole-3-carboxamide]
16 | < 0.1 µM | COCc1ccc2c(c1)C(NC(=O)Nc1c(C)c(-c3cn(C)cn3)nn1-c1ccccc1)CN(CC(F)(F)F)C2C (centres unmarked) [Example 111, 1-(6-(methoxymethyl)-1-methyl-2-(2,2,2-trifluoroethyl)-1,2,3,4-tetrahydroisoquinolin-4-yl)-3-(4-methyl-3-(1-methyl-1H-imidazol-4-yl)-1-phenyl-1H-pyrazol-5-yl)urea]
17 | < 0.1 µM | Cc1c(-c2cnn(C)c2)nn(-c2ccccc2)c1NC(=O)NC1CCSc2ccc(Br)cc21 (centres unmarked) [Example 112, 1-(6-bromothiochroman-4-yl)-3-(1′,4-dimethyl-1-phenyl-1H,1′H-[3,4′-bipyrazol]-5-yl)urea]
18 | 0.1 to 1 µM | Cc1c(-c2cnn(C)c2)nn(-c2ccccc2)c1NC(=O)NC1CCS(=O)(=O)c2ccc(Br)cc21 (centres unmarked) [Example 113, 1-(6-bromo-1,1-dioxidothiochroman-4-yl)-3-(1′,4-dimethyl-1-phenyl-1H,1′H-[3,4′-bipyrazol]-5-yl)urea]
19 | < 0.1 µM | Cc1c(-c2cnn(C)c2)nn(-c2ccccc2)c1NC(=O)NC1CSCc2ccc(Br)cc21 (centres unmarked) [Example 114, 1-(6-bromoisothiochroman-4-yl)-3-(1′,4-dimethyl-1-phenyl-1H,1′H-[3,4′-bipyrazol]-5-yl)urea]
20 | < 0.1 µM | Cc1c(-c2cnn(C)c2)nn(-c2ccccc2)c1NC(=O)NC1CS(=O)(=O)Cc2ccc(Br)cc21 (centres unmarked) [Example 115, 1-(6-bromo-2,2-dioxidoisothiochroman-4-yl)-3-(1′,4-dimethyl-1-phenyl-1H,1′H-[3,4′-bipyrazol]-5-yl)urea]
21 | < 0.1 µM | Cc1c(-c2cnn(C)c2)nn(-c2ccccc2)c1NC(=O)NC1CN(CC(F)(F)F)C(=O)c2ccccc21 (centres unmarked) [Example 116, 1-(1′,4-dimethyl-1-phenyl-1H,1′H-[3,4′-bipyrazol]-5-yl)-3-(1-oxo-2-(2,2,2-trifluoroethyl)-1,2,3,4-tetrahydroisoquinolin-4-yl)urea]
22 | < 0.1 µM | Cc1ncc(-c2nn(-c3ccccc3)c(NC(=O)N[C@@H]3c4ccccc4C(C)(C)C[C@H]3O)c2C)cn1 [Example 117, 1-((1,2-trans)-2-hydroxy-4,4-dimethyl-1,2,3,4-tetrahydronaphthalen-1-yl)-3-(4-methyl-3-(2-methylpyrimidin-5-yl)-1-phenyl-1H-pyrazol-5-yl)urea]
23 | < 0.1 µM | CNC(=O)c1nn(-c2ccccc2)c(NC(=O)NC2CN(CC(F)(F)F)C(C)c3ccc(COC)cc32)c1C (centres unmarked) [Example 129, 5-(3-(6-(methoxymethyl)-1-methyl-2-(2,2,2-trifluoroethyl)-1,2,3,4-tetrahydroisoquinolin-4-yl)ureido)-N,4-dimethyl-1-phenyl-1H-pyrazole-3-carboxamide]
24 | < 0.1 µM | Cc1ncc(-c2nn(-c3ccccc3)c(NC(=O)NC3CN(CC(F)(F)F)C(=O)c4ccccc43)c2C)cn1 (centres unmarked) [Example 130, 1-(4-methyl-3-(2-methylpyrimidin-5-yl)-1-phenyl-1H-pyrazol-5-yl)-3-(1-oxo-2-(2,2,2-trifluoroethyl)-1,2,3,4-tetrahydroisoquinolin-4-yl)urea]
25 | < 0.1 µM | Cc1nn(-c2ccccc2)c(NC(=O)NC2CN(CC(F)(F)F)C(=O)c3ccccc32)c1C (centres unmarked) [Example 131, 1-(3,4-dimethyl-1-phenyl-1H-pyrazol-5-yl)-3-(1-oxo-2-(2,2,2-trifluoroethyl)-1,2,3,4-tetrahydroisoquinolin-4-yl)urea]
26 | < 0.1 µM | Cc1c(OCCN2CCOCC2)nn(-c2ccccc2)c1NC(=O)N[C@@H]1c2ccccc2C(C)(C)C[C@H]1O [Example 133, 1-((1R,2R)-2-hydroxy-4,4-dimethyl-1,2,3,4-tetrahydronaphthalen-1-yl)-3-(4-methyl-3-(2-morpholinoethoxy)-1-phenyl-1H-pyrazol-5-yl)urea]
27 | < 0.1 µM | Cc1c(OCCN(C)C)nn(-c2ccccc2)c1NC(=O)N[C@@H]1c2ccccc2C(C)(C)C[C@H]1O [Example 134, 1-(3-(2-(dimethylamino)ethoxy)-4-methyl-1-phenyl-1H-pyrazol-5-yl)-3-((1R,2R)-2-hydroxy-4,4-dimethyl-1,2,3,4-tetrahydronaphthalen-1-yl)urea]
28 | 1 to 3 µM | COc1nn(-c2ccccc2)c(NC(=O)N[C@@H]2c3ccccc3CC[C@@H]2O)c1C [Example 135, 1-((1R,2S)-2-hydroxy-1,2,3,4-tetrahydronaphthalen-1-yl)-3-(3-methoxy-4-methyl-1-phenyl-1H-pyrazol-5-yl)urea]

Row | SMILES | IC50
29 | Cc1c(OC2CN3CCC2CC3)nn(-c2ccccc2)c1NC(=O)N[C@@H]1c2ccccc2C(C)(C)C[C@H]1O (stereo partly drawn) [Example 132, 1-((1R,2R)-2-hydroxy-4,4-dimethyl-1,2,3,4-tetrahydronaphthalen-1-yl)-3-(4-methyl-1-phenyl-3-(quinuclidin-3-yloxy)-1H-pyrazol-5-yl)urea] | < 0.1 µM
